In US9802941B2, “Compounds and methods for inhibiting histone demethylases” (Gilead Sciences, Inc., priority 2014, dated 2017):
Like-named read-outs stand apart in the source and are kept apart here.

Assays:
Format in all cases: biochemical
KDM2B (FBXL10) = target: T1, KDM2B (FBXL10) (Homo sapiens, UniProt Q8NHM5); assay: Histone lysine demethylase AlphaLISA assay, KDM2B
T1 construct: KDM2B; BPS,; 1-650; Bac; purchased BPS Bioscience, US; host or cells: baculovirus system
T1 sequence (Q8NHM5 1-650): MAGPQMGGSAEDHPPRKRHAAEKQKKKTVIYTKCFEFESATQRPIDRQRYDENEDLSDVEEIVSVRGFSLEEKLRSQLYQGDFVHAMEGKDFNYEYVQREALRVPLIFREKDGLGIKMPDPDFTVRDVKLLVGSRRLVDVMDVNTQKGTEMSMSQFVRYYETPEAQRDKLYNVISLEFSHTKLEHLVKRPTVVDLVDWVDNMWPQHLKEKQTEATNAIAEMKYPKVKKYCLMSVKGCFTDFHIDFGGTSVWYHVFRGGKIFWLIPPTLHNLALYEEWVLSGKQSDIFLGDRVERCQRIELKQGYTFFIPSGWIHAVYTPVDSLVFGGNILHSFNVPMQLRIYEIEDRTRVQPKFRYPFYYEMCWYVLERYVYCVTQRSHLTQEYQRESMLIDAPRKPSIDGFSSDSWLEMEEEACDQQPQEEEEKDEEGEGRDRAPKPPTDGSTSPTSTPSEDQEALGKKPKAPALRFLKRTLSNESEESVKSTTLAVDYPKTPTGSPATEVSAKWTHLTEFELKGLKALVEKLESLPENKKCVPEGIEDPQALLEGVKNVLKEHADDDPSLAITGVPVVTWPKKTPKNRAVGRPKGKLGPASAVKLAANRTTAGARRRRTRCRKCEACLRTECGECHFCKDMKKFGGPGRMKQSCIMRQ
Outline: (§1)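 AlphaLISA demethylase assay: enzyme in buffer of 50 mM Hepes (pH 7.4-8.0), 0.003-0.01% Tween-20, 0.1% BSA, 5 μM (NH4)2Fe(SO4)2 preincubated 10 min with compound before substrate addition at room temperature. Product detected with acceptor beads then streptavidin donor beads, read after dark incubation.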

KDM5B (PLU-1) = target: T2, KDM5B (PLU-1) (Homo sapiens, UniProt Q9UGL1); assay: Histone lysine demethylase AlphaLISA assay, KDM5B
T2 construct: BRIC; 1-809; E. coli; host or cells: E. coli
T2 sequence (Q9UGL1 1-809): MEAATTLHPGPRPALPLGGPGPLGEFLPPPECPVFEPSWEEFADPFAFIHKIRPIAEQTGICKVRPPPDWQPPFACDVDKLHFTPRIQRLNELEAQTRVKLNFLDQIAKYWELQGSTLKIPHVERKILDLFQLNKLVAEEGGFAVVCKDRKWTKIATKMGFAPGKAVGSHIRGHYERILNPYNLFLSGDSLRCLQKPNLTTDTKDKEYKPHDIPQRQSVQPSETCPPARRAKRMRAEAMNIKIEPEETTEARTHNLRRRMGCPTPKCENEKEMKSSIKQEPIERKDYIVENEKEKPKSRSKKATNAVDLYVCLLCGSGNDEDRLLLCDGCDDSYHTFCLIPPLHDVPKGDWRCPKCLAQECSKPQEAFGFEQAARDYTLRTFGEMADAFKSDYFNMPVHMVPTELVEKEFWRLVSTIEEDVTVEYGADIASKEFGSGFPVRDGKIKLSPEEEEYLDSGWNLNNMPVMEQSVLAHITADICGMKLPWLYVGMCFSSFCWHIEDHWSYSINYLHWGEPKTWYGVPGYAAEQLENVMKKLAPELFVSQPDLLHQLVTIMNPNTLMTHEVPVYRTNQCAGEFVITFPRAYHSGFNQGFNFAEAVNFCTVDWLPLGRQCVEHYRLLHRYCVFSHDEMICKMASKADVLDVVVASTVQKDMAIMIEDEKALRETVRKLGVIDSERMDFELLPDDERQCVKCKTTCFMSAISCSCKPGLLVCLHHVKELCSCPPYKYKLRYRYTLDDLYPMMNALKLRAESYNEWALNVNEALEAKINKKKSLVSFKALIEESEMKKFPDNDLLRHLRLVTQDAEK
Outline: as §1

KDM4C (JMJD2C) = target: T3, KDM4C (JMJD2C) (Homo sapiens, UniProt Q9H3R0); assay: Histone lysine demethylase AlphaLISA assay, KDM4C
T3 construct: KDM4C; BRIC, Denmark; 1-349; E. coli; host or cells: E. coli
T3 sequence (Q9H3R0 1-349): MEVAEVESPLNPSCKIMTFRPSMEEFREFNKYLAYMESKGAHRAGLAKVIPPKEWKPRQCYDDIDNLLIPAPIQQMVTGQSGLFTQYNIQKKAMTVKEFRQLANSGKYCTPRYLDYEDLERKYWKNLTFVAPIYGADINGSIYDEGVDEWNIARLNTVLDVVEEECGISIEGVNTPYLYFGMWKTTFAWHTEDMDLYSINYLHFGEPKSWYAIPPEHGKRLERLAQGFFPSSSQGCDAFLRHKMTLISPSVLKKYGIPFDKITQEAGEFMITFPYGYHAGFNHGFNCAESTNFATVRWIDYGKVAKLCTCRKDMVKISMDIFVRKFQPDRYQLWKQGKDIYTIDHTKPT
Outline: as §1

PHF8 (KDM7) = target: T4, PHF8 (KDM7) (Homo sapiens, UniProt Q9UPP1); assay: Histone lysine demethylase AlphaLISA assay, PHF8
T4 construct: KDM7 (PHF8); BRIC; 1-1322; Bac
T4 sequence (Q9UPP1 37-440 limits assumed): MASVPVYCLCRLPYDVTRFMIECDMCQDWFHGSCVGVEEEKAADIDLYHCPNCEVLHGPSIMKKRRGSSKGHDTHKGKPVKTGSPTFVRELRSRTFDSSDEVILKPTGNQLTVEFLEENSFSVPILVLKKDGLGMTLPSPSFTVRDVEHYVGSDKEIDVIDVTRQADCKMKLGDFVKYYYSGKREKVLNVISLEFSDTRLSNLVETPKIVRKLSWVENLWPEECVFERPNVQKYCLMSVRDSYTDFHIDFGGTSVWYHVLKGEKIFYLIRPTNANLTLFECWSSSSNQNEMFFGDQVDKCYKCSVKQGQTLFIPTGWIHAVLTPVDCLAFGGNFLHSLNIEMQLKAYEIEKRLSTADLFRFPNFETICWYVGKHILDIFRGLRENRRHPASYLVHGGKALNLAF
Outline: as §1

[1] = AlphaLISA, in vitro, read-out: HDME Inhibition KDM2B
[2] = AlphaLISA assay, read-out: HDME Inhibition KDM5B (IC50)
[3] = AlphaLISA, in vitro, read-out: HDME Inhibition KDM5B
[4] = AlphaLISA assay, read-out: HDME Inhibition KDM4C (IC50)
[5] = AlphaLISA, in vitro, read-out: HDME Inhibition KDM4C
[6] = AlphaLISA, in vitro, read-out: HDME Inhibition PHF8
[7] = AlphaLISA assay, read-out: HDME Inhibition PHF8 (IC50)

IC50 (KDM2B (FBXL10); [1]) [µM]	IC50 (KDM5B (PLU-1); [2]) [µM]	IC50 (KDM5B (PLU-1); [3]) [µM]	IC50 (KDM4C (JMJD2C); [4]) [µM]	IC50 (KDM4C (JMJD2C); [5]) [µM]	IC50 (PHF8 (KDM7); [6]) [µM]	IC50 (KDM2B (FBXL10); AlphaLISA assay, read-out: HDME Inhibition KDM2B (IC50)) [µM]	IC50 (PHF8 (KDM7); [7]) [µM]	IC50 (KDM5B (PLU-1)) [µM]	SMILES
1.68	> 10	> 10	> 10	> 10	1.8				CCc1nnc(CNCc2cc(C(=O)O)cc(C)n2)n1C/C=C/c1ccccc1 [Compound 68, 2-{[({5-ethyl-4-[(2E)-3-phenylprop-2-en-1-yl]-4H-1,2,4-triazol-3-yl}methyl)amino]methyl}-6-methylpyridine-4-carboxylic acid]
> 10	> 10	> 10	> 10	> 10	> 10	> 10	> 10		CC(C)C[C@@H](CO)NCc1cc(C(=O)O)cc(CO)n1 [Compound 79, 2-({[(2S)-1-hydroxy-4-methylpentan-2-yl]amino}methyl)-6-(hydroxymethyl)pyridine-4-carboxylic acid]
0.587			> 10	> 10	1.27			0.431	C=CCn1ccnc1CNCc1cc(C(=O)O)cc(C)n1 [Compound 75, 2-methyl-6-[({[1-(prop-2-en-1-yl)-1H-imidazol-2-yl]methyl}amino)methyl]pyridine-4-carboxylic acid]
5.18	> 10	> 10	> 10	> 10	> 10		> 10		COc1ccc(OCCc2ccccc2)c(CCNCc2cc(C(=O)O)cc(CO)n2)n1 [Compound 107, 2-(hydroxymethyl)-6-[({2-[6-methoxy-3-(2-phenylethoxy)pyridin-2-yl]ethyl}amino)methyl]pyridine-4-carboxylic acid]
0.389	> 10	> 10	> 10	> 10	9.65				O=C(O)c1cc(CO)nc(CNCc2nnc(-c3cccs3)n2CCCc2ccccc2)c1 [Compound 95, 2-(hydroxymethyl)-6-[({[4-(3-phenylpropyl)-5-(thiophen-2-yl)-4H-1,2,4-triazol-3-yl]methyl}amino}methyl]pyridine-4-carboxylic acid]
2.94	> 10	> 10	> 10	> 10	6.97				CCc1nnc(CNCc2cc(C(=O)O)cc(C)n2)n1CCCc1ccccc1 [Compound 90, 2-[({[5-ethyl-4-(3-phenylpropyl)-4H-1,2,4-triazol-3-yl]methyl}amino)methyl]-6-methylpyridine-4-carboxylic acid]
0.328	> 10	> 10	> 10	> 10	1.11				CCc1cnc(CNCc2cc(C(=O)O)cc(C)n2)n1CCCC(C)C [Compound 91, 2-[({[5-ethyl-1-(4-methylpentyl)-1H-imidazol-2-yl]methyl}amino)methyl]-6-methylpyridine-4-carboxylic acid]
0.138	> 10	> 10	> 10	> 10	1.78				O=C(O)c1cc(CO)nc(CNCc2nnc(Cc3cccs3)n2Cc2ccc(F)cc2)c1 [Compound 71, 2-{[({4-[(4-Fluorophenyl)methyl]-5-(thiophen-2-ylmethyl)-4H-1,2,4-triazol-3-yl}methyl)amino]methyl}-6-(hydroxymethyl)pyridine-4-carboxylic acid]
0.104	> 10	> 10	> 10	> 10	0.246				CCc1nnc(CNCc2cc(C(=O)O)cc(CO)n2)n1Cc1ccc(F)cc1 [Compound 64, 2-{[({5-ethyl-4-[(4-Fluorophenyl)methyl]-4H-1,2,4-triazol-3-yl}methyl)amino]methyl}-6-(hydroxymethyl)pyridine-4-carboxylic acid]
0.838	> 10	> 10	> 10	> 10	1.11				Cc1cc(C(=O)O)cc(CNCc2nnc(C(C)(C)C)n2Cc2ccc(F)cc2)n1 [Compound 49, 2-{[({5-tert-butyl-4-[(4-fluorophenyl)methyl]-4H-1,2,4-triazol-3-yl}methyl)amino]methyl}-6-methylpyridine-4-carboxylic acid]
0.482	> 10	> 10	> 10	> 10	0.883				Cc1cc(C(=O)O)cc(CNCc2nncn2CCCc2ccccc2)n1 [Compound 56]
0.053	> 10	> 10	> 10	> 10	0.506				CCc1cnc(CNCc2cc(C(=O)O)cc(C)n2)n1Cc1cccs1 [Compound 115, 2-[({[5-ethyl-1-(thiophen-2-ylmethyl)-1H-imidazol-2-yl]methyl}amino)methyl]-6-methylpyridine-4-carboxylic acid]
0.056	> 10	> 10	> 10	> 10	0.16				C=C(C)c1cnc(CNCc2cc(C(=O)O)cc(C)n2)n1Cc1ccc(F)cc1 [Compound 103, 2-{[({1-[(4-fluorophenyl)methyl]-5-(prop-1-en-2-yl)-1H-imidazol-2-yl}methyl)amino]methyl}-6-methylpyridine-4-carboxylic acid]
0.333	> 10	> 10	> 10	> 10	1.4				Cc1cc(C(=O)O)cc(CNCc2ncc(C(C)O)n2Cc2ccc(F)cc2)n1 (centres unmarked) [Compound 63, 2-{[({1-[(4-fluorophenyl)methyl]-5-(1-hydroxyethyl)-1H-imidazol-2-yl}methyl)amino]methyl}-6-methylpyridine-4-carboxylic acid]
0.133	> 10	> 10	> 10	> 10	0.861				CCc1cnc(CNCc2cc(C(=O)O)cc(C)n2)n1CCCc1ccccc1 [Compound 108, 2-[({[5-ethyl-1-(3-phenylpropyl)-1H-imidazol-2-yl]methyl}amino)methyl]-6-methylpyridine-4-carboxylic acid]
